One test concerns Candida albicans. Description: microbe, parasite or virus in culture. Conditions: ATCC 90028, ASSAY_TEST Inhibition of Fungal Growth, detection method Absorption (OD530), plate type 384well, NBS, CORNING #3640.
The subject of another test is Acinetobacter baumannii. Description: microbe, parasite or virus in culture. To be noted: ATCC 19606, 18 h, ASSAY_TEST Inhibition of Bacterial Growth, detection method Absorption (OD600), MEDIA CAMHB, plate type 384well, NBS, CORNING #3640.
For the next test, the system named is Escherichia coli. The test can be described thus: microbe, parasite or virus in culture. To be noted: ATCC 25922, 18 h, ASSAY_TEST Inhibition of Bacterial Growth, detection method Absorption (OD600), MEDIA CAMHB, plate type 384well, NBS, CORNING #3640.
Another test has as its system Staphylococcus aureus. The test can be described thus: microbe, parasite or virus in culture. Conditions: ATCC 43300, 18 h, ASSAY_TEST Inhibition of Bacterial Growth, detection method Absorption (OD600), MEDIA CAMHB, plate type 384well, NBS, CORNING #3640.
Another test has as its system Klebsiella pneumoniae. Description: microbe, parasite or virus in culture. Conditions: ATCC 700603, 18 h, ASSAY_TEST Inhibition of Bacterial Growth, detection method Absorption (OD600), MEDIA CAMHB, plate type 384well, NBS, CORNING #3640.
The subject of another test is Pseudomonas aeruginosa. The test can be described thus: microbe, parasite or virus in culture. To be noted: ATCC 27853, 18 h, ASSAY_TEST Inhibition of Bacterial Growth, detection method Absorption (OD600), MEDIA CAMHB, plate type 384well, NBS, CORNING #3640.
For another test, the system named is HEK293. Description: cells. The class given is functional, Homo sapiens, ATCC CRL1573. Conditions: Homo sapiens, ATCC CRL1573, HEK293; ASSAY_TEST Inhibition of Cell Viability; detection method Resazurin; Fluorescence (ex560/em590); MEDIA DMEM with 10% FBS; plate type 384well; TC; CORNING #3712; time 18 hr. Background: The colour change of resazurin is a common sign of viable cells or microbes.

17 molecules from ChEMBL document CHEMBL4513141, “CO-ADD screening of NIH (USA) - Clinical Collection” (2021) can be followed below.

A word on the CC50: it is the concentration that lowers cell viability or growth by half. The low end stands for harm at low concentration, the high end for better tolerance by the cells.

In brackets after ≈: the same amount, converted by molar mass.

Description for Acinetobacter baumannii: Antibacterial activity against Acinetobacter baumannii ATCC 19606 (CO-ADD:GN_034); MIC in CAMBH media using NBS plates, by OD600
Description for Candida albicans: Antifungal activity against Candida albicans ATCC 90028 (CO-ADD:FG_001); MIC in YNB media using NBS plates, by OD630
Description for Cryptococcus neoformans: Antifungal activity against Cryptococcus neoformans H99 ATCC 208821 (CO-ADD:FG_002); MIC in YNB media using NBS plates, by Resazurin OD(600-570)
Description for Escherichia coli: Antibacterial activity against Escherichia coli ATCC 25922 (CO-ADD:GN_001); MIC in CAMBH media using NBS plates, by OD(600)
Description for Klebsiella pneumoniae: Antibacterial activity against Klebsiella pneumoniae MDR ATCC 70063 (CO-ADD:GN_003); MIC in CAMBH media using NBS plates, by OD(600)
Description for Pseudomonas aeruginosa: Antibacterial activity against Pseudomonas aeruginosa ATCC 27853 (CO-ADD:GN_042); MIC in CAMBH media using NBS plates, by OD(600)
Description for Staphylococcus aureus: Antibacterial activity against Staphylococcus aureus MRSA ATCC 43300 (CO-ADD:GP_020); MIC in CAMBH media, using NBS plates, by OD(600)

Take `CO[C@H]1/C=C/O[C@@]2(C)Oc3c(C)c(O)c4c(O)c(c(C=NN5CCN(C)CC5)c(O)c4c3C2=O)NC(=O)/C(C)=C\C=C\[C@H](C)[C@H](O)[C@@H](C)[C@@H](O)[C@@H](C)[C@H](OC(C)=O)[C@@H]1C`: the MIC was greater than 10 µM in the test on Candida albicans; greater than 10 µM against Acinetobacter baumannii; 10 µM (≈ 8.23 µg/mL) in the test on Escherichia coli; no more than 0.0781 µM against Staphylococcus aureus; greater than 10 µM in the test on Klebsiella pneumoniae; 2.5 µM (≈ 2.06 µg/mL) against Pseudomonas aeruginosa. In the test on Cryptococcus neoformans, the MIC is greater than 10 µM. The molecule further registered a CC50 with HEK293 greater than 10 µM.

On to `Oc1c(Cl)cc(Cl)c(Cl)c1Cc1c(O)c(Cl)cc(Cl)c1Cl` [HEXACHLOROPHENE], for which the MIC against Candida albicans is greater than 10 µM; against Acinetobacter baumannii, greater than 10 µM; with Escherichia coli, greater than 10 µM; against Staphylococcus aureus, 5 µM (≈ 2.03 µg/mL); against Klebsiella pneumoniae, greater than 10 µM; against Pseudomonas aeruginosa it was greater than 10 µM. The MIC in the test with Cryptococcus neoformans was greater than 10 µM. Besides, in the test on HEK293, the CC50 is greater than 10 µM.

As for `CO[C@H]1C=CO[C@@]2(C)Oc3c(C)c(O)c4c(O)c(c5c(nc6cc(C)ccn65)c4c3C2=O)NC(=O)C(C)=CC=C[C@H](C)[C@H](O)[C@@H](C)[C@@H](O)[C@@H](C)[C@H](OC(C)=O)[C@@H]1C`, the MIC against Candida albicans is greater than 10 µM; against Acinetobacter baumannii, 10 µM (≈ 7.86 µg/mL); against Escherichia coli, 10 µM (≈ 7.86 µg/mL); in the test on Staphylococcus aureus it was no more than 0.0781 µM; in the test with Klebsiella pneumoniae, greater than 10 µM; with Pseudomonas aeruginosa, 2.5 µM (≈ 1.96 µg/mL). In the test with Cryptococcus neoformans, this molecule returned an MIC greater than 10 µM. For the same molecule, the CC50 in the test with HEK293 was greater than 10 µM.

In the case of `Clc1ccc(CO/N=C(\Cn2ccnc2)c2ccc(Cl)cc2Cl)c(Cl)c1` [OXICONAZOLE NITRATE], the MIC in the test with Candida albicans is no more than 0.0781 µM; against Acinetobacter baumannii it was greater than 10 µM; against Escherichia coli, greater than 10 µM; against Staphylococcus aureus, greater than 10 µM; in the test on Klebsiella pneumoniae, greater than 10 µM; with Pseudomonas aeruginosa, greater than 10 µM. In addition, the MIC in the test with Cryptococcus neoformans is no more than 0.0781 µM. The molecule further showed a 50% cytotoxic concentration (CC50) in the test with HEK293 greater than 10 µM.

For `CC(=O)Oc1ccccc1C(=O)Nc1ncc([N+](=O)[O-])s1` [NITAZOXANIDE], the MIC in the test with Candida albicans, with Acinetobacter baumannii, against Escherichia coli, with Staphylococcus aureus, against Klebsiella pneumoniae and with Pseudomonas aeruginosa was greater than 10 µM each time. The molecule also yielded an MIC with Cryptococcus neoformans greater than 10 µM. Also, in the test on HEK293, the CC50 is greater than 10 µM.

In the case of `CCN1CCN(C(=O)N[C@@H](C(=O)N[C@@H]2C(=O)N3[C@@H]2SC(C)(C)[C@@H]3C(=O)O)c2ccccc2)C(=O)C1=O` [PIPERACILLIN SODIUM], the MIC is greater than 10 µM against Candida albicans; 10 µM with Acinetobacter baumannii; 10 µM with Escherichia coli; greater than 10 µM against Staphylococcus aureus; greater than 10 µM with Klebsiella pneumoniae; greater than 10 µM against Pseudomonas aeruginosa. Also, the MIC against Cryptococcus neoformans is greater than 10 µM. For the same molecule, the CC50 in the test on HEK293 is greater than 10 µM.

For `CN(C)[C@@H]1C(=O)C(C(N)=O)=C(O)[C@@]2(O)C(O)=C3C(=O)c4c(O)cccc4[C@@](C)(O)[C@H]3[C@H](O)[C@@H]12`, the MIC is greater than 10 µM against Candida albicans; greater than 10 µM with Acinetobacter baumannii; 5 µM (≈ 2.3 µg/mL) against Escherichia coli; 1.25 µM (≈ 0.576 µg/mL) in the test with Staphylococcus aureus; greater than 10 µM with Klebsiella pneumoniae; 10 µM (≈ 4.6 µg/mL) against Pseudomonas aeruginosa. In the test on Cryptococcus neoformans, this molecule showed an MIC greater than 10 µM. In the test with HEK293, this molecule returned a CC50 greater than 10 µM.

Take `N[C@@H](C(=O)N[C@@H]1C(=O)N2C(C(=O)O)=C(Cl)CS[C@H]12)c1ccccc1` [CEFACLOR ANHYDROUS]: the MIC against Candida albicans, with Acinetobacter baumannii, against Escherichia coli, with Staphylococcus aureus, against Klebsiella pneumoniae and against Pseudomonas aeruginosa was greater than 10 µM in each case. Moreover, the MIC in the test on Cryptococcus neoformans was greater than 10 µM. This molecule also registered a CC50 in the test with HEK293 greater than 10 µM.

Take `C=CC1=C(C(=O)O)N2C(=O)[C@@H](NC(=O)/C(=N/OCC(=O)O)c3csc(N)n3)[C@H]2SC1`: the MIC against Candida albicans was greater than 10 µM; against Acinetobacter baumannii, greater than 10 µM; with Escherichia coli it was 2.5 µM (≈ 1.13 µg/mL); with Staphylococcus aureus, greater than 10 µM; against Klebsiella pneumoniae, greater than 10 µM; against Pseudomonas aeruginosa, greater than 10 µM. In addition, the MIC in the test with Cryptococcus neoformans is greater than 10 µM. The CC50 with HEK293 is greater than 10 µM.

Regarding `CO[C@H]1/C=C/O[C@@]2(C)Oc3c(C)c(O)c4c(c3C2=O)C2=NC3(CCN(CC(C)C)CC3)NC2=C(NC(=O)/C(C)=C\C=C\[C@H](C)[C@H](O)[C@@H](C)[C@@H](O)[C@@H](C)[C@H](OC(C)=O)[C@@H]1C)C4=O` [RIFABUTIN], the MIC is greater than 10 µM in the test with Candida albicans; 10 µM (≈ 8.47 µg/mL) in the test on Acinetobacter baumannii; 5 µM (≈ 4.24 µg/mL) in the test on Escherichia coli; no more than 0.0781 µM against Staphylococcus aureus; greater than 10 µM against Klebsiella pneumoniae; 0.156 µM (≈ 0.132 µg/mL) in the test with Pseudomonas aeruginosa. Also, the MIC with Cryptococcus neoformans was greater than 10 µM. The molecule also returned a CC50 in the test on HEK293 greater than 10 µM.

On to `COc1cc(NC(C)CCCN)c2ncccc2c1` (stereo unspecified) [PRIMAQUINE PHOSPHATE], for which the MIC against Candida albicans, against Acinetobacter baumannii, in the test on Escherichia coli, in the test with Staphylococcus aureus, with Klebsiella pneumoniae and against Pseudomonas aeruginosa was greater than 10 µM throughout. In the test on Cryptococcus neoformans, the MIC is greater than 10 µM. Besides, the CC50 with HEK293 is greater than 10 µM.

As for `C[C@@H](c1ncncc1F)[C@](O)(Cn1cncn1)c1ccc(F)cc1F` [VORICONAZOLE], the MIC against Candida albicans is no more than 0.0781 µM; in the test on Acinetobacter baumannii it was greater than 10 µM; against Escherichia coli it was greater than 10 µM; against Staphylococcus aureus, greater than 10 µM; with Klebsiella pneumoniae, greater than 10 µM; in the test with Pseudomonas aeruginosa, greater than 10 µM. This molecule also showed an MIC against Cryptococcus neoformans of 0.625 µM (≈ 0.218 µg/mL). In the test on HEK293, this molecule yielded a CC50 greater than 10 µM.

Turning to `O=c1c2ccccc2[se]n1-c1ccccc1` [EBSELEN], the MIC was 5 µM (≈ 1.37 µg/mL) against Candida albicans; greater than 10 µM in the test on Acinetobacter baumannii; greater than 10 µM in the test on Escherichia coli; greater than 10 µM against Staphylococcus aureus; greater than 10 µM in the test on Klebsiella pneumoniae; greater than 10 µM against Pseudomonas aeruginosa. This molecule also had an MIC in the test on Cryptococcus neoformans of 2.5 µM (≈ 0.685 µg/mL). The CC50 in the test with HEK293 was greater than 10 µM.

`CCOC(=O)C1=C(C)NC(C)=C(C(=O)OCC)C1c1ccccc1/C=C/C(=O)OC(C)(C)C` [LACIDIPINE]: the MIC in the test on Candida albicans, against Acinetobacter baumannii, against Escherichia coli, in the test on Staphylococcus aureus, against Klebsiella pneumoniae and against Pseudomonas aeruginosa was greater than 10 µM throughout. The MIC against Cryptococcus neoformans was greater than 10 µM. Also, the CC50 with HEK293 is greater than 10 µM.

As for `CON=C(C(=O)N[C@@H]1C(=O)N2C(C(=O)O)=C(COC(N)=O)CS[C@H]12)c1ccco1`, the MIC is greater than 10 µM against Candida albicans; greater than 10 µM against Acinetobacter baumannii; 10 µM (≈ 4.24 µg/mL) in the test on Escherichia coli; 5 µM (≈ 2.12 µg/mL) in the test with Staphylococcus aureus; greater than 10 µM with Klebsiella pneumoniae; greater than 10 µM with Pseudomonas aeruginosa. In addition, in the test with Cryptococcus neoformans, the MIC was greater than 10 µM. Also, the CC50 in the test on HEK293 was greater than 10 µM.

For the molecule `CCn1cc(C(=O)O)c(=O)c2cc(F)c(N3CCNCC3)cc21` [NORFLOXACIN], the MIC against Candida albicans is greater than 10 µM; against Acinetobacter baumannii, 5 µM (≈ 1.6 µg/mL); with Escherichia coli, 0.625 µM (≈ 0.2 µg/mL); in the test with Staphylococcus aureus it was 5 µM (≈ 1.6 µg/mL); in the test with Klebsiella pneumoniae, 10 µM (≈ 3.19 µg/mL); against Pseudomonas aeruginosa, greater than 10 µM. Moreover, in the test on Cryptococcus neoformans, the MIC is greater than 10 µM. The CC50 with HEK293 was greater than 10 µM.

With `CCCCCCCCCOc1ccc2[nH]cc(CCN)c2c1`, the MIC in the test with Candida albicans, with Acinetobacter baumannii, in the test with Escherichia coli, against Staphylococcus aureus, in the test on Klebsiella pneumoniae and against Pseudomonas aeruginosa was greater than 10 µM each time. Moreover, the MIC in the test with Cryptococcus neoformans is greater than 10 µM. Further, the CC50 in the test with HEK293 was determined as 4.05 µM.
